Earlier results as cited in patent US20250235471A1, “OIL-IN-WATER EMULSION FOR INHALATION ADMINISTRATION COMPRISING CANNABIDIOL(CBD)” (Incannex Healthcare Limited, priority 2021, published 2025).

In the case of `C=C(C)[C@@H]1CCC(C)=C[C@H]1c1c(O)cc(CCCCC)cc1O` [CBD, cannabidiol], the aqueous solubility is listed as < 10 µg/mL and the “estimated oil/water partition coefficient (Log P)” value (estimated) is listed as 6-7.
